Source: US11046657B2, “Pyrimidinone derivatives and uses thereof to neutralize the biological activity of chemokines” (Centre National de la Recherche Scientifique (CNRS), priority 2016, dated 2021)
Where a name gives a salt, the structure may show the parent alone.

target: T1, CXCR4-CXCL12 binding (Homo sapiens, UniProt P48061); experiment: Inhibition of CXCL12-TR binding to CXCR4-GFP (FRET); conditions: 10 μM; Table 2
T1 construct: expressed in transfected cells
Experimental: Study of the changes of CXCR4-CXCL12 binding was achieved by the energy transfer technique^10,11.
Binding of Texas red-labelled CXCL12 with CXCR4-GFP fused receptor^11 induces fluorescence resonance energy transfer (FRET), which can be monitored by the reduction of GFP fluorescence emission. The characterization of CXCL12 neutraligands was evaluated in two conditions, differing by the sequence of addition of molecules. Reduction of GFP fluorescence emission was more important when neutraligands were preincubated (30 min) […] prior to the addition to cells.
The CXCR4 antagonist, T134 (20 μM) was used as a control in both incubation protocols. Data obtained were consistent with a binding to the chemokine and not to its receptor. Consequently, all selected compounds are indeed CXCL12 chemokine neutraligands and behave as chalcone-4. The neutralizing properties of the compounds are thus confirmed.

T1 sequence (P48061 22-89 limits assumed): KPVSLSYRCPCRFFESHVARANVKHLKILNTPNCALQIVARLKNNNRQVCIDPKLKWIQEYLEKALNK

inhibition at 10 µM [%]	SMILES
46 ± 8	COc1cc(-c2cc(-c3ccccc3)nc(=O)[nH]2)ccc1O [(8), 4-(phenyl)-6-(4-hydroxy-3-methoxyphenyl)-pyrimidin-2(1H)-one]
52 ± 10	O=c1nc(-c2ccc(Cl)cc2)cc(-c2ccc(O)c(OC(F)(F)F)c2)[nH]1 [(9), 4-(4-chlorophenyl)-6-(4-hydroxy-3-(trifluoromethoxy)phenyl)pyrimidin-2(1H)-one]
39 ± 7	COc1ccc(-c2cc(-c3ccc(Cl)cc3)nc(=O)[nH]2)cc1O [(10), 4-(4-chlorophenyl)-6-(3-hydroxy-4-methoxyphenyl)pyrimidin-2(1H)-one]
4.3 ± 3	O=c1nc(-c2ccc(Cl)cc2)cc(-c2ccc(O)cc2)[nH]1 [compound (A), 4-(4-chlorophenyl)-6-(4-hydroxyphenyl)pyrimidin-2(1H)-one, reference compound]
19 ± 7	O=c1nc(-c2ccc(Cl)cc2)cc(-c2ccccc2)[nH]1 [compound (B), 4-(4-chlorophenyl)-6-phenylpyrimidin-2(1H)-one, reference compound]
10 ± 5	COc1cccc(-c2cc(-c3ccc(Cl)cc3)nc(=O)[nH]2)c1 [compound (C), 4-(4-chlorophenyl)-6-(3-methoxyphenyl)pyrimidin-2(1H)-one, reference compound]

Continued, compound first:

SMILES	inhibition at 10 µM [%]
COc1ccc(-c2cc(-c3ccc(O)c(OC)c3)[nH]c(=O)n2)cc1 [(2), 4-(4-methoxyphenyl)-6-(4-hydroxy-3-methoxyphenyl)-pyrimidin-2(1H)-one]	96 ± 3
COc1cc(-c2cc(-c3ccc(O)cc3)nc(=O)[nH]2)ccc1O [(3), 4-(4-hydroxyphenyl)-6-(4-hydroxy-3-methoxyphenyl)-pyrimidin-2(1H)-one]	53 ± 6
COc1cc(-c2cc(-c3ccc(C(C)C)cc3)nc(=O)[nH]2)ccc1O [(4), 4-(4-isopropylphenyl)-6-(4-hydroxy-3-methoxyphenyl)-pyrimidin-2(1H)-one]	35 ± 4
COc1cc(-c2cc(-c3ccc(F)cc3)nc(=O)[nH]2)ccc1O [(5), 4-(4-fluorophenyl)-6-(4-hydroxy-3-methoxyphenyl)pyrimidin-2(1H)-one]	46 ± 4
COc1cc(-c2cc(-c3ccccc3Cl)nc(=O)[nH]2)ccc1O [(7), 4-(2-chlorophenyl)-6-(4-hydroxy-3-methoxyphenyl)pyrimidin-2(11H)-one]	62 ± 5

same assay, conditions: 10 μM; Table 3

inhibition at 10 µM [%]	SMILES
83 ± 2	COc1cc(-c2cc(-c3ccc(O)c(C)c3)nc(=O)[nH]2)ccc1O [(59)]
26 ± 1	COc1ccc(-c2cc(-c3ccc(Cl)cc3)nc(=O)[nH]2)cc1OC [(D), 4-(4-chlorophenyl)-6-(4-methoxy-3-methoxyphenyl)pyrimidin-2(1H)-one, reference compound]
1.8 ± 0.7	COc1ccc(-c2cc(-c3ccc(O)c(C)c3)nc(=O)[nH]2)cc1OC [(E), 4-(4-hydroxy-3-methylphenyl)-6-(4-methoxy-3-methoxyphenyl)pyrimidin-2(1H)-one, reference compound]

same assay, conditions: 10 μM; Table 4

inhibition at 10 µM [%]	SMILES
44 ± 1	COc1cc(-c2cc(-c3ccco3)nc(=O)[nH]2)ccc1O [(28), 4-(furan-2-yl)-6-(4-hydroxy-3-methoxyphenyl)pyrimidin-2(1H)-one]
58 ± 15	COc1cc(-c2cc(-c3ccc(Cl)s3)nc(=O)[nH]2)ccc1O [(33), 4-(5-chlorothiophen-2-yl)-6-(4-hydroxy-3-methoxyphenyl)pyrimidin-2(1H)-one]
53 ± 14	COc1cc(-c2cc(-c3ccc[nH]3)nc(=O)[nH]2)ccc1O [(60)]

same assay, conditions: deduced from comparative examples

Affinity for CXCL12 (SAR)	SMILES
loss of affinity	O=c1nc(-c2ccc(Cl)cc2)cc(-c2ccc(O)cc2)[nH]1 [compound (A), 4-(4-chlorophenyl)-6-(4-hydroxyphenyl)pyrimidin-2(1H)-one, reference compound]
loss of affinity	COc1cccc(-c2cc(-c3ccc(Cl)cc3)nc(=O)[nH]2)c1 [compound (C), 4-(4-chlorophenyl)-6-(3-methoxyphenyl)pyrimidin-2(1H)-one, reference compound]

test system: not given; experiment: not given; conditions: not given

melting point [°C]	SMILES
117 to 124	COc1cc(-c2cc(-c3ccc(N4CCNCC4)cc3)nc(=O)[nH]2)ccc1O.Cl
272 to 276	Cl.NCCOc1cc(-c2cc(-c3ccc(Cl)cc3)nc(=O)[nH]2)ccc1O
257 to 260	COc1cc(-c2cc(-c3ccc(N(C)C)nc3)nc(=O)[nH]2)ccc1O.Cl
300 to 303	COc1cc(-c2cc(-c3ccc(N4CCN(C)CC4)cc3)nc(=O)[nH]2)ccc1O (as salt: hydrochloride)
257 to 261	COc1cc(-c2cc(-c3ccc(Cl)cc3)nc(=O)[nH]2)ccc1C(=O)O [(27), 4-(6-(4-chlorophenyl)-2-oxo-2,3-dihydropyrimidin-4-yl)-2-methoxybenzoic Acid]
